From article PMC9434702 (Journal of medicinal chemistry, 2022)

Experiments:
[1] = rat brain; cited from earlier work
mGluR2 [2] = target: T1, mGluR2 (Homo sapiens, UniProt Q14416); settings: mGluR2 NAM; cited from earlier work
mGluR2 [3] = target: mGluR2 (Rattus norvegicus, UniProt P31421); assay: Pretreatment; type: in vivo, Sprague–Dawley rats
[4] = rat; cited from earlier work
recombinant human Pgp = recombinant human Pgp (Homo sapiens, UniProt P08183); assay: Pgp-Glo assay; type: in vitro ADME; settings: 100 μM compound; change relative to Na3VO4 samples = Pgp ATPase activity
Rat plasma stability = type: in vitro ADME; settings: 37 °C, peak area at 60 min vs 0 min
[5] = Rat liver microsome stability; type: in vitro ADME, Sprague–Dawley rat; settings: NADPH, 37 °C, peak area at 60 min vs 0 min
mGluR2 [6] = target: T1, mGluR2
[7] = 0.5 mg/kg iv., 1 min before tracer
[8] = 0.2 mg/kg iv., 1 min before tracer
[9] = 0.2 mg/kg iv., 20 min before tracer

Sequence of mGluR2 (Rattus norvegicus, UniProt P31421) (P31421 19-872): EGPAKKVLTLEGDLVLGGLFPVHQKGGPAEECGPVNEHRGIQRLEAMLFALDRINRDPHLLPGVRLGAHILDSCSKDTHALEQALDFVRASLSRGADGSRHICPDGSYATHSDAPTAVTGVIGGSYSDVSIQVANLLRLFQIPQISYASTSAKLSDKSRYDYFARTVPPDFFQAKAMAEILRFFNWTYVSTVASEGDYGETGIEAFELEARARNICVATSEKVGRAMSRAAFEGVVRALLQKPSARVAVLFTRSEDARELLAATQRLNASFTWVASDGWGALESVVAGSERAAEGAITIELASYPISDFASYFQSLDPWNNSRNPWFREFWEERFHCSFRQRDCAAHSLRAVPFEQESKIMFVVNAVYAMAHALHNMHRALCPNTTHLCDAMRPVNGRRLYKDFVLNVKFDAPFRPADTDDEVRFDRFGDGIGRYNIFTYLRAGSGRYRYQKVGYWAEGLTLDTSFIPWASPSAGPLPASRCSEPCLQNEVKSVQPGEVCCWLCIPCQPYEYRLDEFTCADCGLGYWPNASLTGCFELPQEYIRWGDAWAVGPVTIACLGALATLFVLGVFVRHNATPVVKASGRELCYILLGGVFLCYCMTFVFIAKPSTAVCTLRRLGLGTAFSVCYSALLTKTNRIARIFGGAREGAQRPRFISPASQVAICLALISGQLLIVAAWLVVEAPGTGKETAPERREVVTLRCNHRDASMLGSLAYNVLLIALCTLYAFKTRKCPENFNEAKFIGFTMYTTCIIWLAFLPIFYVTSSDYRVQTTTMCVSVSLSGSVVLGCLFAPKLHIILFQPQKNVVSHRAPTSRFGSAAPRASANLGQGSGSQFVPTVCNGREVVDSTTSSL
T1 sequence (Q14416 19-872): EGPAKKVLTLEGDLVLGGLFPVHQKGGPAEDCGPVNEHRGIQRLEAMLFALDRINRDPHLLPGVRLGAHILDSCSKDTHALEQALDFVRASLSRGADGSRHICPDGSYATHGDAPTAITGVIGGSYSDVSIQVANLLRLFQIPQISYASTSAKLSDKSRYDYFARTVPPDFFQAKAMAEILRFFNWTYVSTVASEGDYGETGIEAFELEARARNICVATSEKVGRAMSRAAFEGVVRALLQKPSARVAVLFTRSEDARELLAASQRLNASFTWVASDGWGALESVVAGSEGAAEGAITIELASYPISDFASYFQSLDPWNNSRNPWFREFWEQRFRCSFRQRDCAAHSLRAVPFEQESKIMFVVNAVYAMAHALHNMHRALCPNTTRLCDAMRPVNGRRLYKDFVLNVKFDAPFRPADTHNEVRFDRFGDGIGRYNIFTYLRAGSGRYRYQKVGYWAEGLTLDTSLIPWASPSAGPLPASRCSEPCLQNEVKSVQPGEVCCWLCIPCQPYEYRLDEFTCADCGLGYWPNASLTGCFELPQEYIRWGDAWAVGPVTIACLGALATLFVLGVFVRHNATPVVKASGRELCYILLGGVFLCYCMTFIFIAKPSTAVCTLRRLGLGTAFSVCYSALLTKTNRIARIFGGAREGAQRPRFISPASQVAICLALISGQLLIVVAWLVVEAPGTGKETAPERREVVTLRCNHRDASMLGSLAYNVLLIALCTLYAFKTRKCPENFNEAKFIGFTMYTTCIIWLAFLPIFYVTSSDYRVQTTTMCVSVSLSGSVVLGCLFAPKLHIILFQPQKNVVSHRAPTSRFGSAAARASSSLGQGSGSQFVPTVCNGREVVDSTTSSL
Sequence of recombinant human Pgp (P08183 whole entry): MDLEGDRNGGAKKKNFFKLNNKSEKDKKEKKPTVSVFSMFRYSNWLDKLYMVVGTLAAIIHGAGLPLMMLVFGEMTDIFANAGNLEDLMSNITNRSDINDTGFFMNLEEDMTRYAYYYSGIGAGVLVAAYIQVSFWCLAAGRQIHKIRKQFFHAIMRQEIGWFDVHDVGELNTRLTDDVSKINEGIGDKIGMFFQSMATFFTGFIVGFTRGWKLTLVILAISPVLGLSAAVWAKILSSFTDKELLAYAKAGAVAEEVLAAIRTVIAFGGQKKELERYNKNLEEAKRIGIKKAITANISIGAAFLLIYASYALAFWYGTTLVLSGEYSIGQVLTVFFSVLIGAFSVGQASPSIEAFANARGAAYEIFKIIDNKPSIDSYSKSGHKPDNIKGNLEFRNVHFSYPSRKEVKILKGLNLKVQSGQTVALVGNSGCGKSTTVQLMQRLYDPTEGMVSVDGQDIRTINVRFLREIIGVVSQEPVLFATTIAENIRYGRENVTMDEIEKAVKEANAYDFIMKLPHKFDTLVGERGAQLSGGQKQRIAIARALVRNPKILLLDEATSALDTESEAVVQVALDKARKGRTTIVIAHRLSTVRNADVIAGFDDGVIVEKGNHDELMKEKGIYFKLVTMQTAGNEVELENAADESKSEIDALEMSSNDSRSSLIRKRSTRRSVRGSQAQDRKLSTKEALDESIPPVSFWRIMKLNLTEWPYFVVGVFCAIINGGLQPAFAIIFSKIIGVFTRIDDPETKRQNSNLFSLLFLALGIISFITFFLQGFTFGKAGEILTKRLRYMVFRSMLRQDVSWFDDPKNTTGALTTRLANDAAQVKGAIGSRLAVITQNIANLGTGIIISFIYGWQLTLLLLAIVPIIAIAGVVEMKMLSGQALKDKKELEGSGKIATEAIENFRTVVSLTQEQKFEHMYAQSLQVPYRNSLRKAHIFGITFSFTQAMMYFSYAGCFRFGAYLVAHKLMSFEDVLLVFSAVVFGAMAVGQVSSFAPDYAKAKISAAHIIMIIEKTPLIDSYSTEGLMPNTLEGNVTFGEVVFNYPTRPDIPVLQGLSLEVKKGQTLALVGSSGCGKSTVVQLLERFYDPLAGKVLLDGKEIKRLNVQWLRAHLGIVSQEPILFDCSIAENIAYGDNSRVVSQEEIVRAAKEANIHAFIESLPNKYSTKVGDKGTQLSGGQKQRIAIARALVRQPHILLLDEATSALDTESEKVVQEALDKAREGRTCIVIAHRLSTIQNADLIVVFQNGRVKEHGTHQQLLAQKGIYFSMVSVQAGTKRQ

Structure (SMILES): COc1ccc(-c2cc(C(N)=O)nc3cc(CN4C(=O)CCC4=O)ccc23)c(F)c1 [compound 7]
- SUVmax [1]: 0.3

Structure (SMILES): Cn1ccc(COc2cnc(C(N)=O)cc2-c2ccc(F)cc2)n1 [compound 9]
- IC50 (mGluR2 [2]): 78 nM
- decrease of [11C]13 radioactivity accumulation, average across ROIs (mGluR2 [3]; [7]): 22.4 ± 7.3%
- decrease of [11C]13 radioactivity accumulation, cortex (highest) (mGluR2 [3]; [7]): 38.5%
- decrease of [11C]13 radioactivity accumulation, thalamus (least) (mGluR2 [3]; [7]): 17.1%
- decrease of [11C]13 radioactivity accumulation, total average (mGluR2 [3]; 0.5 mg/kg iv., 20 min before tracer): 14.5 ± 1.5%
- half-life (t1/2) [4]: 20 min
- plasma clearance (CLp) [4]: 118 mL/min/kg

Structure (SMILES): CC1(C)CCc2c(-c3ccc(F)cc3F)cc(C(N)=O)nc2O1 [compound 12, 5-(2,4-Difluorophenyl)-2,2-dimethyl-3,4-dihydro-2H-pyrano[2,3-b]pyridine-7-carboxamide]
- luminescence change (p/s) (recombinant human Pgp): 3.07 × 10^7 p/s
- plasma stability (Rat plasma stability): > 92%
- microsome stability [5]: > 92%
- agonist activity at mGluR2 (mGluR2 [6]; cells induced with 1 μg/mL tetracycline, no glutamate): no agonist activity was observed
- concentration at which potent NAM activity begins (mGluR2 [6]; in the presence of increasing concentrations of L-glutamate): ~30 nM

Structure (SMILES): COc1ccc(-c2cc(C(N)=O)nc3c2CCC(C)(C)O3)c(F)c1 [compound 13, 5-(2-Fluoro-4-methoxyphenyl)-2,2-dimethyl-3,4-dihydro-2H-pyrano[2,3-b]pyridine-7-carboxamide]
- luminescence change (p/s) (recombinant human Pgp): 1.53 × 10^7 p/s
- plasma stability (Rat plasma stability): 94.5%

Structure (SMILES): N#Cc1cc(C2=Nc3ccc(Br)cc3NC(=O)C2)ccn1 [compound 26]
- decrease of [11C]13 radioactivity accumulation, among ROIs (mGluR2 [3]; [8]): 41.7 ± 1.1%
- decrease of [11C]13 radioactivity accumulation, cerebellum (least) (mGluR2 [3]; [8]): 39.6%
- decrease of [11C]13 radioactivity accumulation, hypothalamus (highest) (mGluR2 [3]; [8]): 42.6%
- decrease of [11C]13 radioactivity accumulation, average (mGluR2 [3]; [9]): 12.7 ± 1.7%
- decrease of [11C]13 radioactivity accumulation, cerebellum (highest) (mGluR2 [3]; [9]): 15.2%
- decrease of [11C]13 radioactivity accumulation, striatum (lowest) (mGluR2 [3]; [9]): 11.1%
